In patent US20260184693A1, “INHIBITORS OF SOLUTE CARRIER FAMILY 6A MEMBER 19 (SLC6A19) AND METHODS OF USE THEREOF” (Maze Therapeutics, Inc., priority 2022, published 2026):

Biological target: T1, human SLC6A19 (Homo sapiens, UniProt Q695T7)
T1 construct: expressed in transfected cells
T1 sequence (Q695T7 1-634): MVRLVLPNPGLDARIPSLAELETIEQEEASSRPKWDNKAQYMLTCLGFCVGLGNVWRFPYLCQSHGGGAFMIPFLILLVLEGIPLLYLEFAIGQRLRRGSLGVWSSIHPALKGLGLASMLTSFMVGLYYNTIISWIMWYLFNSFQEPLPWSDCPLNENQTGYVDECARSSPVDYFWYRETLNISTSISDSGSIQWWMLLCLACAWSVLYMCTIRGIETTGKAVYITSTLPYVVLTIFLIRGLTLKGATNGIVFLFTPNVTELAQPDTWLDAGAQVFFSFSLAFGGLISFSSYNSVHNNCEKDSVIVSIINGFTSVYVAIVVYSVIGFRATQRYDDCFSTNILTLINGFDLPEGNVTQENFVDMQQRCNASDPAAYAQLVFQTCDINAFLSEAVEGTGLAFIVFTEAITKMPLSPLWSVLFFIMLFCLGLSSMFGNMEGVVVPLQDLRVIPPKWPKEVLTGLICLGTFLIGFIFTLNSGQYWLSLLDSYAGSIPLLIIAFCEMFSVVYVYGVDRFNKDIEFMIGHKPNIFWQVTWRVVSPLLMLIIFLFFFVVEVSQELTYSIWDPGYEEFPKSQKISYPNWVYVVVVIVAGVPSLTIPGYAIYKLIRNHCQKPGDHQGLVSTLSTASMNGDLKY
T1 sequence (Q9HBJ8 15-222 partner): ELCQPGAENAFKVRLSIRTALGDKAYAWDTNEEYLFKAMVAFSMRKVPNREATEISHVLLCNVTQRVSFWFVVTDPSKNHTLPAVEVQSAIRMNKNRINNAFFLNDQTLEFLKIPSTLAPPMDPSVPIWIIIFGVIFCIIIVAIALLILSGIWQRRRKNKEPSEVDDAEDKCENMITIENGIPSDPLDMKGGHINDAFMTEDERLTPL
Experiment: Example B2: 13C6,15N-isoleucine uptake, RapidFire mass spectrometry, in CHO cells with doxycycline-inducible expression of human SLC6A19 and TMEM27
Format: cell-based
Conditions: read-out: SLC6A19_RapidFire Uptake Assay IC50
Method: Assay ready vials of CHO cells with doxycycline inducible expression of human SLC6A19 and TMEM27 were thawed, plated in T175 flasks containing DMEM/F12 media, 10% FBS, 100 Penicillin-Streptomycin, 1× UltraGlutamate, 1 mM Sodium Pyruvate, Sodium Bicarbonate (7.5 mL of 7.5% solution in 500 mL media final), […] Blasticidin, 150 µg/mL Hygromycin B Gold, and 500 µg/mL G418, and incubated (humidified, 37° C. with […]) for 48 hours. Media was then removed, flasks were washed with 20 mL of DPBS, and 5 mL of TryμLE™ Express was added to each flask to initiate cell dissociation. After 5 minutes, 10 mL of cell culture media was added to each flask and mixed. The cell suspension was collected and centrifuged for 5 minutes at 200×g. The supernatant was removed, and the pellet was resuspended in 10 mL of cell culture media. Resuspended cells were counted using a Vi-Cell. 30 μL/well (20,000 cells/well) of cell suspension was added to Poly-D-Lysine 384-well black/clear plates. Plates were incubated (humidified, 37° C. with 5% CO2) for 24 hours. To induce expression of human SLC6A19 and TMEM27, 10 μL of assay culture media containing 4 μg/mL doxycycline was added to each well. Assay plates were then incubated (humidified, 37° C. with 5% CO2) overnight. After incubation, the media was removed, and wells were washed 3 times with 40 μL of warmed DPBS. […] All compounds were plated in a duplicate 10-point dilution series that consisted of 2-fold dilutions. The plates were incubated (humidified, 37° C. with 5% CO2) with compound for 20 minutes. Afterwards, 20 μL/well of 2 mM 13C6,15N-1-isoleucine was added to each well and plates were incubated again (humidified, 37° C. with 5% CO2) for another 20 minutes. Assay buffer was then removed, and plates were washed. 70 μL/well of stop solution (75% acetonitrile, 25% HPLC grade water, 250 nM 1-leucine-1-13 C (RapidFire standard)) was added to each well. The plates were sealed and then placed in a −20° C. freezer for 20 minutes. The plates were thawed at room temperature for 20 minutes and then centrifuge for 20 minutes at 3000 rpm. Using an ABSciex API4000 mass spectrometer, processed samples were loaded onto the graphitic carbon SPE-column. The time for aspiration, load/wash, elution and re-equilibration time was 600, 1500, 3000 and 500 milliseconds, respectively. Peak areas were calculated using RapidFire Integrator software.

IC50 [nM]	SMILES
821	Cc1ncoc1C(=O)N1CCC[C@@H](N(C)C(=O)NCc2cc3cc(Cl)ccc3[nH]2)C1 [Compound 27, (R)-3-((5-chloro-1H-indol-2-yl)methyl)-1-methyl-1-(1-(4-methyloxazole-5-carbonyl)piperidin-3-yl)urea]
> 23400	CN(C(=O)NCc1cc2cc(Cl)ccc2[nH]1)[C@@H]1CCCN(C(=O)c2ncnn2C)C1 [Compound 28, (R)-3-((5-chloro-1H-indol-2-yl)methyl)-1-methyl-1-(1-(1-methyl-1H-1,2,4-triazole-5-carbonyl)piperidin-3-yl)urea]
2490	CN(C(=O)NCc1cc2cc(Cl)ccc2[nH]1)[C@@H]1CCCN(C(=O)CNC(N)=O)C1 [Compound 29, (R)-1-(1-(carbamoylglycyl)piperidin-3-yl)-3-((5-chloro-1H-indol-2-yl)methyl)-1-methylurea]
3700	CN(C(=O)NCc1cc2cc(Cl)ccc2[nH]1)[C@@H]1CCCN(C(=O)Cn2nccn2)C1 [Compound 30, (R)-1-(1-(2-(2H-1,2,3-triazol-2-yl)acetyl)piperidin-3-yl)-3-((5-chloro-1H-indol-2-yl)methyl)-1-methylurea]
1490	Cc1cc(C(=O)N2CCC[C@@H](N(C)C(=O)NCc3cc4cc(Cl)ccc4[nH]3)C2)on1 [Compound 31, (R)-3-((5-chloro-1H-indol-2-yl)methyl)-1-methyl-1-(1-(3-methylisoxazole-5-carbonyl)piperidin-3-yl)urea]
8610	CN(C(=O)NCc1cc2cc(Cl)ccc2[nH]1)[C@@H]1CCCN(C(=O)CS(C)(=O)=O)C1 [Compound 32, (R)-3-((5-chloro-1H-indol-2-yl)methyl)-1-methyl-1-(1-(2-(methylsulfonyl)acetyl)piperidin-3-yl)urea]
405	CC(C)C(=O)N1CCC[C@@H](N(C)C(=O)NCc2cc3cc(Cl)ccc3[nH]2)C1 [Compound 33, (R)-3-((5-chloro-1H-indol-2-yl)methyl)-1-(1-isobutyrylpiperidin-3-yl)-1-methylurea]
1400	CN(C(=O)NCc1cc2cc(Cl)ccc2[nH]1)[C@@H]1CCCN(C(=O)c2ccncc2)C1 [Compound 34, (R)-3-((5-chloro-1H-indol-2-yl)methyl)-1-(1-isonicotinoylpiperidin-3-yl)-1-methylurea]
556	Cc1cnc(C(=O)N2CCC[C@@H](N(C)C(=O)NCc3cc4cc(Cl)ccc4[nH]3)C2)s1 [Compound 35, (R)-3-((5-chloro-1H-indol-2-yl)methyl)-1-methyl-1-(1-(5-methylthiazole-2-carbonyl)piperidin-3-yl)urea]
1570	Cc1cnoc1C(=O)N1CCC[C@@H](N(C)C(=O)NCc2cc3cc(Cl)ccc3[nH]2)C1 [Compound 36, (R)-3-((5-chloro-1H-indol-2-yl)methyl)-1-methyl-1-(1-(4-methylisoxazole-5-carbonyl)piperidin-3-yl)urea]
19600	CN(C(=O)NCc1cc2cc(Cl)ccc2[nH]1)[C@@H]1CCCN(C(=O)c2ncc[nH]c2=O)C1 [Compound 37, (R)-3-((5-chloro-1H-indol-2-yl)methyl)-1-methyl-1-(1-(3-oxo-3,4-dihydropyrazine-2-carbonyl)piperidin-3-yl)urea]
428	Cc1ncc(C(=O)N2CCC[C@@H](N(C)C(=O)NCc3cc4cc(Cl)ccc4[nH]3)C2)o1 [Compound 38, (R)-3-((5-chloro-1H-indol-2-yl)methyl)-1-methyl-1-(1-(2-methyloxazole-5-carbonyl)piperidin-3-yl)urea]
231	CN(C(=O)NCc1cc2cc(Cl)ccc2[nH]1)[C@@H]1CCCN(C(=O)c2ccn(C(F)F)n2)C1 [Compound 39, (R)-3-((5-chloro-1H-indol-2-yl)methyl)-1-(1-(1-(difluoromethyl)-1H-pyrazole-3-carbonyl)piperidin-3-yl)-1-methylurea]
5250	CCC(O)C(=O)N1CCC[C@@H](N(C)C(=O)NCc2cc3cc(Cl)ccc3[nH]2)C1 (stereo partly drawn) [Compound 40, 3-((5-chloro-1H-indol-2-yl)methyl)-1-((3R)-1-(2-hydroxybutanoyl)piperidin-3-yl)-1-methylurea]
854	Cc1cc(C(=O)N2CCC[C@@H](N(C)C(=O)NCc3cc4cc(Cl)ccc4[nH]3)C2)[nH]n1 [Compound 41, (R)-3-((5-chloro-1H-indol-2-yl)methyl)-1-methyl-1-(1-(3-methyl-1H-pyrazole-5-carbonyl)piperidin-3-yl)urea]
1240	CN(C(=O)NCc1cc2cc(Cl)ccc2[nH]1)[C@@H]1CCCN(C(=O)c2cccc(F)c2F)C1 [Compound 42, (R)-3-((5-chloro-1H-indol-2-yl)methyl)-1-(1-(2,3-difluorobenzoyl)piperidin-3-yl)-1-methylurea]
6250	COC(C)C(=O)N1CCC[C@@H](N(C)C(=O)NCc2cc3cc(Cl)ccc3[nH]2)C1 (stereo partly drawn) [Compound 43, 3-((5-chloro-1H-indol-2-yl)methyl)-1-((3R)-1-(2-methoxypropanoyl)piperidin-3-yl)-1-methylurea]
350	CN(C(=O)NCc1cc2cc(Cl)ccc2[nH]1)[C@@H]1CCCN(C(=O)C2CC(F)(F)C2)C1 [Compound 44, (R)-3-((5-chloro-1H-indol-2-yl)methyl)-1-(1-(3,3-difluorocyclobutane-1-carbonyl)piperidin-3-yl)-1-methylurea]
1550	CN(C(=O)NCc1cc2cc(Cl)ccc2[nH]1)[C@@H]1CCCN(C(=O)C2(C)CC2)C1 [Compound 45, (R)-3-((5-chloro-1H-indol-2-yl)methyl)-1-methyl-1-(1-(1-methylcyclopropane-1-carbonyl)piperidin-3-yl)urea]
1240	CN(C(=O)NCc1cc2cc(Cl)ccc2[nH]1)[C@@H]1CCCN(C(=O)CCC(N)=O)C1 [Compound 46, (R)-4-(3-(3-((5-chloro-1H-indol-2-yl)methyl)-1-methylureido)piperidin-1-yl)-4-oxobutanamide]
2460	CN(C(=O)NCc1cc2cc(Cl)ccc2[nH]1)[C@@H]1CCCN(C(=O)c2cc(CO)on2)C1 [Compound 47, (R)-3-((5-chloro-1H-indol-2-yl)methyl)-1-(1-(5-(hydroxymethyl)isoxazole-3-carbonyl)piperidin-3-yl)-1-methylurea]
44.2	CN(C(=O)NCc1cc2cc(Cl)ccc2[nH]1)[C@@H]1CCCN(C(=O)C2CCC2)C1 [Compound 48, (R)-3-((5-chloro-1H-indol-2-yl)methyl)-1-(1-(cyclobutanecarbonyl)piperidin-3-yl)-1-methylurea]
371	CN(C(=O)NCc1cc2cc(Cl)ccc2[nH]1)[C@@H]1CCCN(C(=O)CC2CC2)C1 [Compound 49, (R)-3-((5-chloro-1H-indol-2-yl)methyl)-1-(1-(2-cyclopropylacetyl)piperidin-3-yl)-1-methylurea]
4770	CN(C(=O)NCc1cc2cc(Cl)ccc2[nH]1)[C@@H]1CCCN(C(=O)C(C)(O)C(F)(F)F)C1 (stereo partly drawn) [Compound 50, 3-((5-chloro-1H-indol-2-yl)methyl)-1-methyl-1-((3R)-1-(3,3,3-trifluoro-2-hydroxy-2-methylpropanoyl)piperidin-3-yl)urea]
4800	CN(C(=O)NCc1cc2cc(Cl)ccc2[nH]1)[C@@H]1CCCN(C(=O)c2ccnn2C)C1 [Compound 51, (R)-3-((5-chloro-1H-indol-2-yl)methyl)-1-methyl-1-(1-(1-methyl-1H-pyrazole-5-carbonyl)piperidin-3-yl)urea]
